# Experimental data reported in patent US7282356B2, “D-aminoacylase mutants” (Daicel Chemical Industries, Ltd., priority 2002, dated 2007).
# How the values were obtained:
# [1] = system: CC(=O)N[C@H](Cc1c[nH]c2ccccc12)C(=O)O; test: purified protein, by the assay type; conditions: other: 30° C., pH7.5, for N-acetyl-D-tryptophan, pH 7.5
# [2] = system: CC(=O)N[C@H](Cc1c[nH]c2ccccc12)C(=O)O; test: Inhibition/kinetics test of purified mutant D-aminoacylase 3AD-0089; type: biochemical, Alcaligenes denitrificans subsp. xylosoxydans MI-4; conditions: other: 30° C., pH7.5, for N-acetyl-D-tryptophan, pH 7.5
# Method: (§1) The enzyme reaction can be achieved by incubating 1.0 ml of a reaction solution containing 20 mM N-acetyl-D-tryptophan (Sigma), 50 mM Tris-hydrochloride buffer (pH 7.5), and an enzyme solution at 30° C. for 10 minutes. Then, the reaction is stopped by adding 0.5 ml of a stop solution containing TCA (comprising 0.11 M trichloroacetic acid, 0.22 M sodium acetate, and 0.33 M acetic acid). The amount of D-tryptophan produced can be determined by TNBS method (Biosci. Biotech. Biochem., 58, 24 (1994)).
# (§2) For example, 0.25 ml of 100 mM Na2B4O7 is added to 0.25 ml of the stop solution, 10 μl of 110 mM TNBS (trinitrobenzenesulfonic acid) solution is added to the mixed solution, and immediately thereafter, the resulting mixture is stirred. After the mixture is allowed to stand for five minutes, 1 ml of 100 mM NaHPO4 containing 1.5 mM Na2SO3 is added to the mixture to stop the color reaction. Then, the absorbance of the solution is determined at 420 nm. One unit of the enzyme activity is defined as the amount of enzyme that catalyzes the production of 1 μmol of D-tryptophan at 30° C. for one minute.
# (§3) The rate constants of the reaction with N-acetyl-D-tryptophan and N-acetyl-L-tryptophan that is catalyzed by the thus-purified wild-type derived from Alcaligenes denitrificans subsp. xylosoxydans MI-4 or mutant D-aminoacylases of the present invention, can be determined according to the methods described in “Lectures for Biochemical Experiments 21: Introduction to Experimental Approach to Enzyme Kinetics” and “Basic Experimental Methods for Proteins and Enzymes, 2nd Ed.” Michaelis constant is represented by Km; the maximal rate is Vmax; inhibition constant is Ki; the constant for reaction inhibition by excess substrate is Ks′.
# (§4) The mutant D-aminoacylase 3AD-0089 was purified from an E. coli transformant having the plasmid pSL-AD10 that contains DNA encoding the mutant D-aminoacylase 3AD-0089 by the same method as described in Example 19.
# (§5) The D-aminoacylases purified in Examples 20 to 23 were tested for the inhibition by N-acetyl-D-tryptophan and N-acetyl-L-tryptophan. The reaction rate constants for N-acetyl-D-tryptophan and N-acetyl-L-tryptophan were determined according to the methods described in “Lectures for Biochemical Experiments 21: Introduction to Experimental Approach to Enzyme Kinetics” and “Basic Experimental Methods for Proteins and Enzymes, 2nd Ed.” Michaelis constant is represented by Km; the maximal rate is Vmax; inhibition constant is Ki; the constant for reaction inhibition by excess substrate is represented by Ks′. Km and Vmax were determined from a Lineweaver-Burk reciprocal plot; Ki was determined from a second-order plot (Royer); and Ks′ was determined from a [S] −1/v plot.
# [3] = system: Methylobacterium mesophilicum D-aminoacylase; conditions: at concentrations as high as 100 g/l; cited from earlier work
# [4] = target: Alcaligenes denitrificans subsp. xylosoxydans MI-4 D-aminoacylase, wild-type, SEQ ID NO: 1 (Alcaligenes xylosoxydans xylosoxydans, UniProt P72349); test: Inhibition/kinetics test of purified wild-type D-aminoacylase
# [5] = target: T1, Alcaligenes denitrificans subsp. xylosoxydans MI-4 D-aminoacylase mutant M347-0133 (M347A of SEQ ID NO: 1) (Alcaligenes xylosoxydans xylosoxydans, UniProt P72349, M347A); test: Inhibition/kinetics test of purified mutant D-aminoacylase M347-0133; type: biochemical
# T1 construct: made in house; host or cells: E. coli
# T1 sequence (P72349 whole entry M347A): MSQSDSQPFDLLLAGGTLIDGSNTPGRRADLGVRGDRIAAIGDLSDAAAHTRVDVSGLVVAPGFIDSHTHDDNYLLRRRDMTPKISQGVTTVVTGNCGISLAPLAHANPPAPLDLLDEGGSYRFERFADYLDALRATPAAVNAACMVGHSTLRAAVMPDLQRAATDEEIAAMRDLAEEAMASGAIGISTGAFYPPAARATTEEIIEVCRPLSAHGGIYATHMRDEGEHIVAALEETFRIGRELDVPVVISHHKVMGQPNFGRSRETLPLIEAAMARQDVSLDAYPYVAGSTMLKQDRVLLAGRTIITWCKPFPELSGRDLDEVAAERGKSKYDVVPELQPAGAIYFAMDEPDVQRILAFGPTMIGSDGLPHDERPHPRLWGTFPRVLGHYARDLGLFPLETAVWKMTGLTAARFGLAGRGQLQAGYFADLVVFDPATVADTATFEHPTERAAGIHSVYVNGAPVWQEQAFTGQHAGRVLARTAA
# Method: as §1, §2, §3
# (§6) The mutant D-aminoacylase M347-0133 was purified from an E. coli transformant having the plasmid pSL-AD08 that contains DNA encoding the mutant D-aminoacylase M347-0133 by the same method as described in Example 19.
# as §5
# [6] = target: T2, Alcaligenes denitrificans subsp. xylosoxydans MI-4 D-aminoacylase mutant 3AD-0089 (A154V/M347A/R374F of SEQ ID NO: 1) (Alcaligenes xylosoxydans xylosoxydans, UniProt P72349, A154V/M347A/R374F); test: Inhibition/kinetics test of purified mutant D-aminoacylase 3AD-0089; type: biochemical
# T2 construct: made in house; host or cells: E. coli
# T2 sequence (P72349 whole entry A154V/M347A/R374F): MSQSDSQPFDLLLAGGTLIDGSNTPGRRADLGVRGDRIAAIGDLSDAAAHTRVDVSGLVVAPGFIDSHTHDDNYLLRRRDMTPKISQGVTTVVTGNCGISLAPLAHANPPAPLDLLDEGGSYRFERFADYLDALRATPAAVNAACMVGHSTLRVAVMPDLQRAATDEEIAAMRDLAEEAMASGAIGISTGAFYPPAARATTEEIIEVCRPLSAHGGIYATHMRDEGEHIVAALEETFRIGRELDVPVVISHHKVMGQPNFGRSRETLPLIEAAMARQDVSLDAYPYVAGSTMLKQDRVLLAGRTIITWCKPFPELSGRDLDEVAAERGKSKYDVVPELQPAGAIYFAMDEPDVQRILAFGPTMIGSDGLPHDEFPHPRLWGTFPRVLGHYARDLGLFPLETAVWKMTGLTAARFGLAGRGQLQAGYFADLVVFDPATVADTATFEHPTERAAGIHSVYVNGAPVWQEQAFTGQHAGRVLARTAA
# Method: as §1, §2, §3, §4, §5
# [7] = target: T3, Alcaligenes denitrificans subsp. xylosoxydans MI-4 D-aminoacylase mutant R374-0017 (R374F of SEQ ID NO: 1) (Alcaligenes xylosoxydans xylosoxydans, UniProt P72349, R374F); test: Inhibition/kinetics test of purified mutant D-aminoacylase R374-0017; type: biochemical
# T3 construct: made in house; host or cells: E. coli
# T3 sequence (P72349 whole entry R374F): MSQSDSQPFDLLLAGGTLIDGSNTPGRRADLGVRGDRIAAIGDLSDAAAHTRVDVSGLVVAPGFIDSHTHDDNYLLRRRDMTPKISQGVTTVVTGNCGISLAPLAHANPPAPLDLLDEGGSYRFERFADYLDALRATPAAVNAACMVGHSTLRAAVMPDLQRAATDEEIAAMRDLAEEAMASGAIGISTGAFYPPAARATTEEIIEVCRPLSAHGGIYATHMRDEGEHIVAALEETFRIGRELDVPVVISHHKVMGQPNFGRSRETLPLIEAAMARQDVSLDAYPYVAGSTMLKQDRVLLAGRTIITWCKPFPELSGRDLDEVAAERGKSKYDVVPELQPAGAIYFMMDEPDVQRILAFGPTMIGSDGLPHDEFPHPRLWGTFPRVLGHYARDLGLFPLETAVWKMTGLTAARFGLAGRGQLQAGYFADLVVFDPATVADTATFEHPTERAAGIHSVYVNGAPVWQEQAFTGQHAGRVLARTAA
# Method: as §1, §2, §3
# (§7) The mutant D-aminoacylase R374-0017 was purified from an E. coli transformant having the plasmid pSL-AD09 that contains DNA encoding the mutant D-aminoacylase R374-0017 by the same method as described in Example 19.
# as §5
# [8] = target: T4, Alcaligenes denitrificans subsp. xylosoxydans MI-4 D-aminoacylase mutant A154-0043 (A154V of SEQ ID NO: 1) (Alcaligenes xylosoxydans xylosoxydans, UniProt P72349, A154V); test: Inhibition/kinetics test of purified mutant D-aminoacylase A154-0043; type: biochemical
# T4 construct: made in house; host or cells: E. coli
# T4 sequence (P72349 whole entry A154V): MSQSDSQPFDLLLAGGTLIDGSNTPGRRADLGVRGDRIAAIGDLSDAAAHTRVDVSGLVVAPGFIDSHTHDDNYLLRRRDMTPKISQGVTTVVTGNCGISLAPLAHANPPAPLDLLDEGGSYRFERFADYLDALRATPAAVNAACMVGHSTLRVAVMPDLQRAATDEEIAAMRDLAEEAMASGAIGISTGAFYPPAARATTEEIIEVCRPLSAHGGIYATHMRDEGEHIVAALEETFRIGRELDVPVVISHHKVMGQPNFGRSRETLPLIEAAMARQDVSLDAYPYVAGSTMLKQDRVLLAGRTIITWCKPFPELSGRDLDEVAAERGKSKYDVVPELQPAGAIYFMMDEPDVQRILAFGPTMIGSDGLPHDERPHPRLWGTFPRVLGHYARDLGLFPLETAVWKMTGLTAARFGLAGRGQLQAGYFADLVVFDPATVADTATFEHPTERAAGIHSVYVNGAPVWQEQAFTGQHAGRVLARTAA
# Method: as §1, §2, §3
# (§8) The mutant D-aminoacylase A154-0043 was purified from an E. coli transformant having the plasmid pSL-AD07 that contains DNA encoding the mutant D-aminoacylase A154-0043 by the same method as described in Example 19.
# as §5
# [9] = system: Nocardioides thermolilacinus D-aminoacylase; conditions: at concentrations as high as 100 g/l; cited from earlier work
# [10] = system: CC(=O)N[C@H](Cc1c[nH]c2ccccc12)C(=O)O; test: Inhibition/kinetics test of purified mutant D-aminoacylase M347-0133; type: biochemical, Alcaligenes denitrificans subsp. xylosoxydans MI-4; conditions: other: 30° C., pH7.5, for N-acetyl-D-tryptophan, pH 7.5
# Method: as §1, §2, §3, §6, §5
# [11] = system: CC(=O)N[C@H](Cc1c[nH]c2ccccc12)C(=O)O; test: Inhibition/kinetics test of purified mutant D-aminoacylase A154-0043; type: biochemical, Alcaligenes denitrificans subsp. xylosoxydans MI-4; conditions: other: 30° C., pH7.5, for N-acetyl-D-tryptophan, pH 7.5
# Method: as §1, §2, §3, §8, §5
# [12] = system: CC(=O)N[C@H](Cc1c[nH]c2ccccc12)C(=O)O; test: Inhibition/kinetics test of purified mutant D-aminoacylase R374-0017; type: biochemical, Alcaligenes denitrificans subsp. xylosoxydans MI-4; conditions: other: 30° C., pH7.5, for N-acetyl-D-tryptophan, pH 7.5
# Method: as §1, §2, §3, §7, §5
# [13] = D-aminoacylase activity assay (20 mM N-acetyl-D-tryptophan, TNBS method); type: biochemical; conditions: cell extract of E. coli JM109 transformant
# Method: as §1, §2
# [14] = 30° C., pH7.5, for N-acetyl-D-tryptophan
# [15] = 30° C., pH7.5, substrate inhibition by N-acetyl-D-tryptophan
molecule,measurement,setting,value
"Alcaligenes denitrificans subsp. xylosoxydans MI-4 D-aminoacylase, wild-type, SEQ ID NO: 1 (Achromobacter xylosoxidans)",Km,[1],2530 µM
Alcaligenes denitrificans subsp. xylosoxydans MI-4 D-aminoacylase mutant 3AD-0089 (A154V/M347A/R374F of SEQ ID NO: 1) (Achromobacter xylosoxidans; A154V/M347A/R374F),Km,[2],1460 µM
CC(=O)N[C@H](Cc1c[nH]c2ccccc12)C(=O)O [N-acetyl-D-tryptophan],inhibition by the substrate,[3],hardly inhibited
same,Vmax (Lineweaver-Burk reciprocal plot),[4]; [14],685
same,Ks′ (constant for reaction inhibition by excess substrate; [S]−1/v plot),[4]; [15],1.29
same,Vmax (Lineweaver-Burk reciprocal plot),[5]; [14],1000
same,Ks′ (constant for reaction inhibition by excess substrate; [S]−1/v plot),[5]; [15],77.00
same,Vmax (Lineweaver-Burk reciprocal plot),[6]; [14],357
same,substrate inhibition,[6]; in the presence of 99 mM N-acetyl-D-tryptophan,not detectable
same,Vmax (Lineweaver-Burk reciprocal plot),[7]; [14],1000
same,Ks′ (constant for reaction inhibition by excess substrate; [S]−1/v plot),[7]; [15],93.00
same,Vmax (Lineweaver-Burk reciprocal plot),[8]; [14],1031
same,Ks′ (constant for reaction inhibition by excess substrate; [S]−1/v plot),[8]; [15],13.67
same,inhibition by the substrate,[9],hardly inhibited
Alcaligenes denitrificans subsp. xylosoxydans MI-4 D-aminoacylase mutant M347-0133 (M347A of SEQ ID NO: 1) (Achromobacter xylosoxidans; M347A),Km,[10],1420 µM
Alcaligenes denitrificans subsp. xylosoxydans MI-4 D-aminoacylase mutant A154-0043 (A154V of SEQ ID NO: 1) (Achromobacter xylosoxidans; A154V),Km,[11],3440 µM
CC(=O)N[C@@H](Cc1c[nH]c2ccccc12)C(=O)O [N-acetyl-L-tryptophan],Ki,[4],2.6 mM
same,Ki,[5],12.3 mM
same,competitive inhibition,[6]; in the presence of 89 mM N-acetyl-L-tryptophan,not detectable
same,Ki,[7],7.46 mM
same,Ki,[8],6.4 mM
Alcaligenes denitrificans subsp. xylosoxydans MI-4 D-aminoacylase mutant R374-0017 (R374F of SEQ ID NO: 1) (Achromobacter xylosoxidans; R374F),Km,[12],1940 µM
"D-aminoacylase produced with the modified D-aminoacylase gene: wild-type amino acid sequence (SEQ ID NO: 1) expressed from codon-modified gene SEQ ID NO: 3 in plasmid pSL-ADD6 (protein, Alcaligenes denitrificans subsp. xylosoxydans MI-4) MSQSDSQPFDLLLAGGTLIDGSNTPGRRADLGVRGDRIAAIGDLSDAAAHTRVDVSGLVVAPGFIDSHTHDDNYLLRRRDMTPKISQGVTTVVTGNCGISLAPLAHANPPAPLDLLDEGGSYRFERFADYLDALRATPAAVNAACMVGHSTLRAAVMPDLQRAATDEEIAAMRDLAEEAMASGAIGISTGAFYPPAARATTEEIIEVCRPLSAHGGIYATHMRDEGEHIVAALEETFRIGRELDVPVVISHHKVMGQPNFGRSRETLPLIEAAMARQDVSLDAYPYVAGSTMLKQDRVLLAGRTIITWCKPFPELSGRDLDEVAAERGKSKYDVVPELQPAGAIYFMMDEPDVQRILAFGPTMIGSDGLPHDERPHPRLWGTFPRVLGHYARDLGLFPLETAVWKMTGLTAARFGLAGRGQLQAGYFADLVVFDPATVADTATFEHPTERAAGIHSVYVNGAPVWQEQAFTGQHAGRVLARTAA",D-aminoacylase activity of cell extract,[13],86 U/mg
